Measured values reported in ChEMBL document CHEMBL3853278, “Metabolomic Profiling Reveals the N-Acyl-Taurine Geodiataurine in Extracts from the Marine Sponge Geodia macandrewii (Bowerbank)” (J Nat Prod, 2016).

Assay: Cytotoxicity in human A2058 cells assessed as reduction in cell viability after 72 hrs by cell titer 96 aqueous one assay
Format: functional, cell-based
Settings: A2058, 72 h

Compound: CC(C)=CCC/C(C)=C/CC/C(C)=C/CCC(C)C(=O)NCCS(=O)(=O)O (stereo unspecified)
- IC50: 8.5 µM
